Results from ChEMBL document CHEMBL1144083, “Phenylvaleric acid and flavonoid glycosides from Polygonum salicifolium” (J Nat Prod, 1999).
The source made the active and inactive calls. The rule behind the calls is not given here.

Key:
Assay type in all cases: functional
[1] = tested on: Radical scavenging activity; assay: Antioxidant activity assessed as DPPH free radical scavenging activity at 2 ug by TLC autographic assay
[2] = tested on: Radical scavenging activity; assay: Antioxidant activity assessed as DPPH free radical scavenging activity at 4 ug by TLC autographic assay
[3] = tested on: Radical scavenging activity; assay: Antioxidant activity assessed as DPPH free radical scavenging activity at 6 ug by TLC autographic assay
[4] = tested on: Radical scavenging activity; assay: Antioxidant activity assessed as DPPH free radical scavenging activity at 8 ug by TLC autographic assay
[5] = tested on: Radical scavenging activity; assay: Antioxidant activity assessed as DPPH free radical scavenging activity by TLC autographic assay

Q: Which Activity [1] does the source give for O=C(O[C@H]1[C@H](Oc2c(-c3ccc(O)c(O)c3)oc3cc(O)cc(O)c3c2=O)O[C@H](CO)[C@@H](O)[C@@H]1O)c1cc(O)c(O)c(O)c1 here?
A: Active

Q: What about the Activity [2] of the same molecule?
A: Active

Q: And the Activity [3]?
A: Active

Q: And the Activity [4]?
A: Active

Q: What does the source list for O=C(O)[C@H]1O[C@@H](Oc2c(-c3ccc(O)c(O)c3)oc3cc(O)cc(O)c3c2=O)[C@H](O)[C@@H](O)[C@@H]1O?
A: Activity [1]: Active; Activity [2]: Active; Activity [3]: Active; Activity [4]: Active

Q: How did the Activity [5] turn out when CCCCOC(=O)C[C@@H](CCc1ccccc1)O[C@H]1O[C@@H](CO)[C@H](O)[C@@H](O)[C@@H]1O was run?
A: inactive

Q: For O=C(O)C[C@@H](CCc1ccccc1)O[C@H]1O[C@@H](CO)[C@H](O)[C@@H](O)[C@@H]1O, which Activity [5] is on record?
A: inactive

Q: Which results are given for O=c1c(O[C@@H]2O[C@H](CO)[C@H](O)[C@H](O)[C@H]2O)c(-c2ccc(O)c(O)c2)oc2cc(O)cc(O)c12?
A: Activity [1]: Active; Activity [2]: Active; Activity [3]: Active; Activity [4]: Active

Q: For O=c1c(O[C@@H]2O[C@H](CO)[C@@H](O)[C@H](O)[C@H]2O)c(-c2ccc(O)c(O)c2)oc2cc(O)cc(O)c12, which Activity [1] is on record?
A: Active

Q: And the Activity [2]?
A: Active

Q: What about the Activity [3] of the same molecule?
A: Active

Q: What about the Activity [4] of the same molecule?
A: Active

Q: Which Activity [5] does the source give for COc1cc(O[C@@H]2O[C@H](CO[C@@H]3O[C@H](CO)[C@@H](O)[C@H](O)[C@H]3O)[C@@H](O)[C@H](O)[C@H]2O)c(OC)c(O)c1C(=O)CCc1ccccc1 here?
A: inactive
